Measurements: ChEMBL document CHEMBL5678818, “Discovery of potent SOS1 inhibitors that block RAS activation via disruption of the RAS-SOS1 interaction” (Proc Natl Acad Sci U S A, 2019)

Legend:
[1] = target: Serine/threonine-protein kinase VRK2 (Homo sapiens) (UniProt Q86Y07); assay: Inhibition of VRK2 (unknown origin) assessed as residual activity at 1000 nM by KINOMEscan analysis relative to control
[2] = test system: eIF-2-alpha kinase GCN2 (Homo sapiens), Q9P2K8 [S808G]; assay: Inhibition of GCN2 S808G mutant […] domain (unknown origin) assessed as residual activity at 1000 nM by KINOMEscan analysis relative to control
[3] = target: Homeodomain-interacting protein kinase 1 (Homo sapiens) (UniProt Q86Z02); assay: Inhibition of HIPK1 (unknown origin) assessed as residual activity at 1000 nM by KINOMEscan analysis relative to control
[4] = target: T1, Son of sevenless homolog 1 (Homo sapiens) (UniProt Q07889); assay: Binding affinity to N-terminal His10-tagged wild-type recombinant human SOS1 catalytic domain (564 to 1049 residues) expressed in Escherichia coli assessed as change in entropy by ITC analysis
T1 sequence (whole entry): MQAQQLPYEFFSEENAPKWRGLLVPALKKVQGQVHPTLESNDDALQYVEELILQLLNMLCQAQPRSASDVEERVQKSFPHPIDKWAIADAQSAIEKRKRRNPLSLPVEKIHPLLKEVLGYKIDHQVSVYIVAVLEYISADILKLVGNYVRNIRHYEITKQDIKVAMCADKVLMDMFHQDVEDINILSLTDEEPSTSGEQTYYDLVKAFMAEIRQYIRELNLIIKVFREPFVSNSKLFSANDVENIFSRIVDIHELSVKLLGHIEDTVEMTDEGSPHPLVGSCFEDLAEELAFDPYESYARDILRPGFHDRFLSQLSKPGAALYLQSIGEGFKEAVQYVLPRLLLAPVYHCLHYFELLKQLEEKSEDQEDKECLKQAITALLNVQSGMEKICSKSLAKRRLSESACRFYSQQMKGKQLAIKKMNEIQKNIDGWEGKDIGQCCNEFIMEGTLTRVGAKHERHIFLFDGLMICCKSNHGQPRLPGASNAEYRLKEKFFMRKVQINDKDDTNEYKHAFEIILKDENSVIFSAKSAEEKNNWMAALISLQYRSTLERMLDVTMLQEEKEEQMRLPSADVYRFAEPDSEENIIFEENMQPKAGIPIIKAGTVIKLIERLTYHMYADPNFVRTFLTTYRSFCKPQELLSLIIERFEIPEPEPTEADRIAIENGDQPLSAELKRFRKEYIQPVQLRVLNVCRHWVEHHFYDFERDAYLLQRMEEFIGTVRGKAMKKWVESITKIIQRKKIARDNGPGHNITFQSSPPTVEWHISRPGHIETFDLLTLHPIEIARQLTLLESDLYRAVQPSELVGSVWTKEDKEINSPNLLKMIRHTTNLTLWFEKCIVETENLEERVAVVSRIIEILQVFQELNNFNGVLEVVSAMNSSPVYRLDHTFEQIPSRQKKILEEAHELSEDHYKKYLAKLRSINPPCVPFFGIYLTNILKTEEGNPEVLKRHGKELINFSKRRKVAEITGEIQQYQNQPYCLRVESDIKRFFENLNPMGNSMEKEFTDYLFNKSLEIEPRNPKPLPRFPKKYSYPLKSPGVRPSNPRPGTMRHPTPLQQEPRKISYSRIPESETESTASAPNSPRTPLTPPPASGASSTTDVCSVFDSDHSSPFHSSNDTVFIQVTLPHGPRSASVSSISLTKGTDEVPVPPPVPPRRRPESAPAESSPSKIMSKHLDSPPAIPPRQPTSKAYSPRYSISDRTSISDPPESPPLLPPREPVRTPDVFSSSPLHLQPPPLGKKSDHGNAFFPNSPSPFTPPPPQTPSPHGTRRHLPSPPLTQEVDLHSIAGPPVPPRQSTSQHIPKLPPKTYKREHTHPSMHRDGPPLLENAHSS

[5] = target: T2, Mitogen-activated protein kinase kinase kinase 6 (Homo sapiens) (UniProt O95382); assay: Inhibition of ASK2 (unknown origin) assessed as residual activity at 1000 nM by KINOMEscan analysis relative to control
T2 sequence (whole entry): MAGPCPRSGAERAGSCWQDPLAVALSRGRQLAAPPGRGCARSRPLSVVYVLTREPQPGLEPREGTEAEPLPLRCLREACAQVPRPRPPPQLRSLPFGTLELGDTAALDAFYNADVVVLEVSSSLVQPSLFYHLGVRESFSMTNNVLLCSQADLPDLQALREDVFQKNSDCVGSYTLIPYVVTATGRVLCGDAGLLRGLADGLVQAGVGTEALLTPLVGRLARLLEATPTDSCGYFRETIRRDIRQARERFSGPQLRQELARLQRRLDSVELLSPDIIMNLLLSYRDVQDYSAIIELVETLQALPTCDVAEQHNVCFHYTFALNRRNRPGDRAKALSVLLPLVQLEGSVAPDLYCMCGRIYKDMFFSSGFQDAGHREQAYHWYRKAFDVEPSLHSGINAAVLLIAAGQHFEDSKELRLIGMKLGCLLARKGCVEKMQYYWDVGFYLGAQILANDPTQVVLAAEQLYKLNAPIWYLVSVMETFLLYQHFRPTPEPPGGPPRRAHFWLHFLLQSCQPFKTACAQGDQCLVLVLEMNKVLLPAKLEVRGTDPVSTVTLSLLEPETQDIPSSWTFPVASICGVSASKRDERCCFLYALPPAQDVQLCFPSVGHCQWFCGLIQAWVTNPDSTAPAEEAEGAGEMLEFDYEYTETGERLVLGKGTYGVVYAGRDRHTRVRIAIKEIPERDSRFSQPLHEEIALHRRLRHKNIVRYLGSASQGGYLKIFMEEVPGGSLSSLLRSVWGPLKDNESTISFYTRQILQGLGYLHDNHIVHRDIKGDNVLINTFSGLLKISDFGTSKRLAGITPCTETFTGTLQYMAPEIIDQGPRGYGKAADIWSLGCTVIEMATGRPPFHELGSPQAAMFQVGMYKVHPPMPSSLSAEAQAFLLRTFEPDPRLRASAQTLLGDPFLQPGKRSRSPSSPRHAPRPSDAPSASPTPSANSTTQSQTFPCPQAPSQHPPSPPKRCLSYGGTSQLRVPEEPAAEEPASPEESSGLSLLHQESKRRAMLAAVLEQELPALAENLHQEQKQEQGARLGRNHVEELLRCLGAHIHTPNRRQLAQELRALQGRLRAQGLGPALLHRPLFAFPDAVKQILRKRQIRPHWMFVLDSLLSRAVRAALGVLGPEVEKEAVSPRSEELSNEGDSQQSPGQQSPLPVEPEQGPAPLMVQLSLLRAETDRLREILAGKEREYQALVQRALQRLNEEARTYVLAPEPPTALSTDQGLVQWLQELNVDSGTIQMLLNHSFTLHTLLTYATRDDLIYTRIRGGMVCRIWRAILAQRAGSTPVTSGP

[6] = target: Insulin receptor (Homo sapiens) (UniProt P06213); assay: Inhibition of INSR (unknown origin) assessed as residual activity at 1000 nM by KINOMEscan analysis relative to control
Sequence of Insulin receptor (Homo sapiens) (P06213 28-758 limits assumed): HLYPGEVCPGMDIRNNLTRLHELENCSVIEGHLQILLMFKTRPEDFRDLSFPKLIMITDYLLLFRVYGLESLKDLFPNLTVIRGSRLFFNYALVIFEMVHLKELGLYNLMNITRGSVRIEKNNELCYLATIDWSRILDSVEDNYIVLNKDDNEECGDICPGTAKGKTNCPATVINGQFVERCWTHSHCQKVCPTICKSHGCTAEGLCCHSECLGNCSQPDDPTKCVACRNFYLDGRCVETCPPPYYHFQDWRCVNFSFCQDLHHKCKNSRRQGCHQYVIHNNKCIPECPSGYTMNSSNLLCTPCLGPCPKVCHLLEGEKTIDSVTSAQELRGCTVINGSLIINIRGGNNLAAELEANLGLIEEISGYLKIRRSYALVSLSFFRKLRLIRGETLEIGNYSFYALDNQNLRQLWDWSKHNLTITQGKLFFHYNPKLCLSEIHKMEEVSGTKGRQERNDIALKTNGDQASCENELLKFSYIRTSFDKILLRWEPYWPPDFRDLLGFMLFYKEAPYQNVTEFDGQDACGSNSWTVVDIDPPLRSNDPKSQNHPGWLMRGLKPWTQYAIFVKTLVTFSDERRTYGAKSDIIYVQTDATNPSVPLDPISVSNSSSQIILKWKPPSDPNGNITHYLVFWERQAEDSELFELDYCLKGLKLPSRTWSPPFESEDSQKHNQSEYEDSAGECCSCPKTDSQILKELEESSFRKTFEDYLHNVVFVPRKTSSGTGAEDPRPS
Sequence of Insulin receptor (Homo sapiens) (P06213 763-1382 limits assumed): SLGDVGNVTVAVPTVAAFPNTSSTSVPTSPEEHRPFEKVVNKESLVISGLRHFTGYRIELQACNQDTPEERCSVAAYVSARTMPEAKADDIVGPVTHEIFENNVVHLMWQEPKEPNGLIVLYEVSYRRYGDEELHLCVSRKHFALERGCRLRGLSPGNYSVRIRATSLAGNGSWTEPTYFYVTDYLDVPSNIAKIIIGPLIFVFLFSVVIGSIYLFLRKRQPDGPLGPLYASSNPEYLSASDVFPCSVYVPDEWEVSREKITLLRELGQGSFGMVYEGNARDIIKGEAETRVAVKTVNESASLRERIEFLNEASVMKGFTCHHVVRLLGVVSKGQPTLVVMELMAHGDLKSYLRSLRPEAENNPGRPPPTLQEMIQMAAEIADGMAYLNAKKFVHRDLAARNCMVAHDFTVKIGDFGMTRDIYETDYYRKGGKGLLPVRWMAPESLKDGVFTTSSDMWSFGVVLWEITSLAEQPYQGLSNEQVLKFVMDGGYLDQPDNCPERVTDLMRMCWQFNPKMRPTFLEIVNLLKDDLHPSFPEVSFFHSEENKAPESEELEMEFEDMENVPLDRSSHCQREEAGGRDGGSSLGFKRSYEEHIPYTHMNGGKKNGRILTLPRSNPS

Sequence of Homeodomain-interacting protein kinase 1 (Homo sapiens) (Q86Z02 whole entry, looked up, the tested form may be a part): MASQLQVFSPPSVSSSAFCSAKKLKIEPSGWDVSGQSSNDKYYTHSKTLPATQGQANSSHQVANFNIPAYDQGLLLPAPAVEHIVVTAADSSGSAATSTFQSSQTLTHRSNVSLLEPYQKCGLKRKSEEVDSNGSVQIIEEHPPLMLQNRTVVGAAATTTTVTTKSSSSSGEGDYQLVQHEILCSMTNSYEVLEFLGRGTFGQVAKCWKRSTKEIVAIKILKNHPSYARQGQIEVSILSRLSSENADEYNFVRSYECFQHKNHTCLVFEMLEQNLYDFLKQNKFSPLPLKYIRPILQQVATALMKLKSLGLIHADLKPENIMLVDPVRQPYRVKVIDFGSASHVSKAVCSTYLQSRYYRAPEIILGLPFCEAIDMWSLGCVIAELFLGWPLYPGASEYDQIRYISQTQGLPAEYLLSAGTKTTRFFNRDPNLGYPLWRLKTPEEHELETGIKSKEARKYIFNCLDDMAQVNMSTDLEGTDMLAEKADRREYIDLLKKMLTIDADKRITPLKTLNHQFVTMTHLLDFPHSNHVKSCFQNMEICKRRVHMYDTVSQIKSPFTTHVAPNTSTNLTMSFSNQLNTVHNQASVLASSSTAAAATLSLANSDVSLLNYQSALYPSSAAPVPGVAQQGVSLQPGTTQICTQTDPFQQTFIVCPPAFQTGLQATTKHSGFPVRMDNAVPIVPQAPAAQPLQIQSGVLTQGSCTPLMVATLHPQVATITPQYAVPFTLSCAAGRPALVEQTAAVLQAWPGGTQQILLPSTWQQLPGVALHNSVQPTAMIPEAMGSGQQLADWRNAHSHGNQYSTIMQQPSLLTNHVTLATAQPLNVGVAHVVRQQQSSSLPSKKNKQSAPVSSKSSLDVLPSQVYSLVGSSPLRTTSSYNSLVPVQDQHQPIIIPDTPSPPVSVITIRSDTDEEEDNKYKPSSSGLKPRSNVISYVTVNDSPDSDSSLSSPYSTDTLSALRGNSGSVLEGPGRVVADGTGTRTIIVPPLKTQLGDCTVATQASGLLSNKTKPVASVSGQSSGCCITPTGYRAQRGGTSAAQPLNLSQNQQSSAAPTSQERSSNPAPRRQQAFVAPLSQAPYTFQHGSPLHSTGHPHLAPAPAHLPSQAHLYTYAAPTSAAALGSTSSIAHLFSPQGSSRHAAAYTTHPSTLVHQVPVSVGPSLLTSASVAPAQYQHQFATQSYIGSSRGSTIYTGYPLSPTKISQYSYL
Sequence of Serine/threonine-protein kinase VRK2 (Homo sapiens) (Q86Y07 whole entry): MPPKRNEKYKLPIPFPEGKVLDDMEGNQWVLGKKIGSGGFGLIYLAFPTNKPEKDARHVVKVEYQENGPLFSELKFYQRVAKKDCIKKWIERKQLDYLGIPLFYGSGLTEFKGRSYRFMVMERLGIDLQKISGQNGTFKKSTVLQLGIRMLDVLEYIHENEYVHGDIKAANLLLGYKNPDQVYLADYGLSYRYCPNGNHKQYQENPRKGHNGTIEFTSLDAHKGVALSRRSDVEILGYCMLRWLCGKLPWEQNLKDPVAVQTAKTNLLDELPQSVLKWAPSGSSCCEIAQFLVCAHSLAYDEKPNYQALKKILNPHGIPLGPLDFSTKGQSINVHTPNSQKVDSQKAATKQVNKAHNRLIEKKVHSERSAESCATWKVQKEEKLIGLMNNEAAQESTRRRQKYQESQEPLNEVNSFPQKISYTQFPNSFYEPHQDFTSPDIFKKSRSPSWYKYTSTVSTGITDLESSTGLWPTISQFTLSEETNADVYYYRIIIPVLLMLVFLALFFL
Sequence of eIF-2-alpha kinase GCN2 (Homo sapiens), Q9P2K8 [S808G] (Q9P2K8 whole entry S808G): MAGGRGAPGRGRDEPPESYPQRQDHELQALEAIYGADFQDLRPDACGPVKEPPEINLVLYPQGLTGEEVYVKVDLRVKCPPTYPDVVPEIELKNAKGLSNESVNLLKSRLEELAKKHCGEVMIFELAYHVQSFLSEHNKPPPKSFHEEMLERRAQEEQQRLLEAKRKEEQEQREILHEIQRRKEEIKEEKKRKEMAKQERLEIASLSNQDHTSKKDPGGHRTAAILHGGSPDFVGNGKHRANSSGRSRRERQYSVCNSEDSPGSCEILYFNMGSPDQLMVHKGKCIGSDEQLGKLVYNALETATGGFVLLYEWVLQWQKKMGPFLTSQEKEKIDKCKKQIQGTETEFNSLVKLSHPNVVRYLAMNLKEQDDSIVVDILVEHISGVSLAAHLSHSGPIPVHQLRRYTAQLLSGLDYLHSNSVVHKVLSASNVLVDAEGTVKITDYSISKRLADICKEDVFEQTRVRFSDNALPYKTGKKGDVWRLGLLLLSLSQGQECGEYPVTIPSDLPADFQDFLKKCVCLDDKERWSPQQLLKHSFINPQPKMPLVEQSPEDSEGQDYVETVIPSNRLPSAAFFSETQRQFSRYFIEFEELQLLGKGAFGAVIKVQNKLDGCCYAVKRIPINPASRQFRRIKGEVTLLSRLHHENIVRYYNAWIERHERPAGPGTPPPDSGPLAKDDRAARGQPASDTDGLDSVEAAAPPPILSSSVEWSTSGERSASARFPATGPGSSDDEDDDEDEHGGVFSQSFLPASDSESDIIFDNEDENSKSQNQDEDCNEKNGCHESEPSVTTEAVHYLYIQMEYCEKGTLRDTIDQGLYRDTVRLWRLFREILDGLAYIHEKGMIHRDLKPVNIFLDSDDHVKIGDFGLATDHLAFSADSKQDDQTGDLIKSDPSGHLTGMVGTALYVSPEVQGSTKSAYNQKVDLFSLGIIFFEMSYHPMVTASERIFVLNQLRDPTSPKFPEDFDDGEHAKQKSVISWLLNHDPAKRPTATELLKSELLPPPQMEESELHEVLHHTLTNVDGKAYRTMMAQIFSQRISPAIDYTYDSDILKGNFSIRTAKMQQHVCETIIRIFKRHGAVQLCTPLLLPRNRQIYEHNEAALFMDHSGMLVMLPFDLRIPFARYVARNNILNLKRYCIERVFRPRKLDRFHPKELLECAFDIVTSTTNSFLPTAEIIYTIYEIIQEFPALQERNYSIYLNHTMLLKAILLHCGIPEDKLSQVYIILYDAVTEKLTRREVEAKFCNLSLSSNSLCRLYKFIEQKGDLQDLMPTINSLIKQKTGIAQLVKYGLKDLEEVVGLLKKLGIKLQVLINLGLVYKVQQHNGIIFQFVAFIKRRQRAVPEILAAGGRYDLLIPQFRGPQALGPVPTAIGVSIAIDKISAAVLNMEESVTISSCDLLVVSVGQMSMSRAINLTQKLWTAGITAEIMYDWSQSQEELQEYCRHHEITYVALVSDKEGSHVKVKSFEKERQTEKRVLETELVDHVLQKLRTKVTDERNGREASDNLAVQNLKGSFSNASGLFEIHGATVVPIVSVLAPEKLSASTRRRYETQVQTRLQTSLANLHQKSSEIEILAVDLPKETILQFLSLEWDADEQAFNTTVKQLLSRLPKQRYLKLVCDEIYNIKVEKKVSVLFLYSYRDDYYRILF

COc1cc2ncnc(N[C@H](C)c3cccc4ccccc34)c2cc1OC
Activity [1]: 81%
Activity [2]: 100%
Activity [3]: 89%
-TdeltaS [4]: 5.5 kcal/mol
Activity [5]: 67%
Activity [6]: 82%

CNCc1ccccc1-c1csc([C@@H](C)Nc2nc(C)nc3cc(OC)c(OC)cc23)c1 [BAY-293]
-TdeltaS [4]: 5.5 kcal/mol

COc1cc2nc(C)nc(N[C@H](C)c3cccc(-c4cn[nH]c4)c3)c2cc1OC
Activity [1]: 93%
Activity [2]: 100%
Activity [3]: 67%
Activity [5]: 69%
Activity [6]: 80%
